Assay [1] deals with DDR1. As to the kind of experiment: Collagen-induced DDR1 phosphorylation in Wnt-5a antisense HB2 cells (immunoprecipitation/Western blot). The format is cell-based, human. The settings on record: crude peptide (approximately 65% pure) 100 μM; 90 min on collagen I. As for the experimental part: The phosphorylation status of DDR1 was analyzed as previously described (12), with the following modifications. After serum-depletion for 16 h, the cells were detached with Versene and then allowed to adhere to collagen I for 60 (MDA-MB-468) or 90 min (HB2) at 37° C. The experiments were terminated by lysing both adherent and non-adherent cells with a lysis buffer (50 mM Tris pH 7.4, 1% Triton-X, 5 mM EDTA, 5 mM EGTA, 50 mM NaCl, 10 μg/ml aprotinin, 2.5 mM benzamidine, 1 mM pefabloc, 1 μg/ml leupeptin and 1 mM Na3VO4). For immunoblotting an anti-DDR1 rabbit polyclonal Ab, sc-532 (Santa Cruz Biotech, Santa Cruz, Calif.) was used at a dilution of 1:10,000. The Ab recognizes DDR1b/c, which is essential because collagen only induces phosphorylation of the b or c isoforms of DDR1 in mammary epithelial cells (10).
Effects of crude peptides on collagen-induced DDR1 phosphorylation in Wnt-5a antisense HB2 cells. Single cells were allowed to adhere to collagen I-coated plates in the presence of the indicated crude peptide (100 μM). (A) Experiments performed in the presence of peptides 167-173. (B) Experiments performed in the presence of peptides 175-180. After 90 min the cells were lysed and DDR1 immunoprecipitated. Subsequently, the immunoprecipitates were subjected to Western blot analysis with an anti-phosphotyrosine Ab and then, after stripping, with an anti-DDR1 Ab to ascertain equal loading. The blots shown are representative of 3 separate experiments The diagrams show densitometric analysis of DDR1 phosphorylation, expressed as per cent of control.

For assay [2], the system named is Wnt-5a antisense HB2 cells. As to the kind of experiment: Migration of Wnt-5a antisense HB2 cells in modified Boyden chamber. The format is cell-based, human. To be noted: 95% pure peptide 100 μM; 18 h. As for the experimental part: Cell migration analyses were performed in a modified Boyden chamber with a polycarbonate membrane (10 μm thick with a porous diameter of 8.0 μm) separating the two chambers (Transwell®; Costar, Cambridge, Mass.). As indicated in some experiments the membranes were coated with collagen by adding collagen-I (10 μg/ml) diluted in 0.25% acetic acid to the upper chamber for 1 h at 37° C., after which it was washed three times with PBS. Each experiment was initiated by detaching the cells by Versene treatment for 10-20 min at 37° C., washed, and re-suspended as a single cell suspension in serum-free DMEM medium supplemented with 0.5% BSA. Together with the indicated agonist a 0.2 ml cell suspension (containing 25,000 MDA-MB-468 or 50,000 HB2 cells) was then added to the upper chamber of the transwell. The lower chamber was filled with 0.6 ml serum-free but BSA-containing DMEM medium supplemented with 1 ng/ml of the chemoattractant IGF-I. As a control, IGF-I was excluded in some wells in each separate experiment. The cells were allowed to migrate in the Boyden chamber for 18 h at 37° C. in a humidified atmosphere of 95% air and 5% CO2. The experiments were terminated by removing the non-migratory cells with a cotton-tipped applicator from the upper surface of the membranes. The remaining cells on the lower surface that had migrated through the membrane were stained for 20 min with 0.5% crystal violet diluted in 20% methanol/80% water. After washing the membranes the number of stained cells per membrane and well was counted in an inverted microscope. The value from each separate experiment represents the median value of three individual wells.
Effects of the selected and pure peptides on the ability of Wnt-5a antisense HB2 cells to adhere and migrate. (A-E) The ability of the cells to adhere to collagen type I-coated wells was analyzed as previously described for FIG. 2 in the absence or presence of different concentrations of the indicated peptide. (F) Effect of the indicated peptides on migration of Wnt-5a antisense HB2 in a transwell migration assay. The cells were allowed to migrate for 18 h in the absence or presence of 100 μM peptide or 0.4 μg/ml of recombinant Wnt5a. The data are given as means±SEM of 6-7 separate experiments, each performed in triplicate. * p<0.05 and ** p<0.01.

Consider “ADFRKVGDALKEKYD [peptide 169, Wnt-5a aa 242-256]”, for which, in assay [1], the DDR1 phosphorylation result is reported as “significant DDR1 phosphorylation”. For the same sequence, in assay [2], the migration result is “effectively decreased the migration”.

With “NKTSEGMDGCEL (Human) [peptide 175, Wnt-5a aa 311-322]”, the DDR1 phosphorylation entry in assay [1] is “significant DDR1 phosphorylation”. Moreover, the migration entry in assay [2] is “effectively decreased the migration”.

Take “SQLAGLSQGQKKL [peptide 171, Wnt-5a aa 55-67; negative control]”: in assay [1], the DDR1 phosphorylation entry is “no DDR1 phosphorylation”. Moreover, in assay [2], the migration result was “no effect on migration”.

The values are drawn from US20080207521A1, “PEPTIDE LIGAND TO IMPAIR CANCER CELL MIGRATION” (priority 2005, published 2008).
